What was measured:
[1] = tested on: TGF-β-stimulated SMAD3 phosphorylation in BEAS-2B cells; assay: Cellular ALK5 potency assay, inhibition of TGF-β stimulated pSMAD3 formation in BEAS-2B cells; type: cell-based; conditions: Homo sapiens, pSMAD3, TGF-β 10 ng/mL, read-out: BEAS2B pIC50 (converted)
Summary of the method: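 Potency is expressed as pIC50, based on dose-dependent reduction of TGF-β-induced pSMAD3 AlphaLISA signal relative to stimulated cells without compound. BEAS-2B cells received compound 1 h before a 30 min, 10 ng/mL TGF-β challenge.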

[2] = molecular target: T1, recombinant human ALK5 (TGF-βR1) protein (Homo sapiens, UniProt P36897); assay: Biochemical ALK5 (TGF-βR1) assay to measure pKi (LANCE Ultra ULight kinase assay); conditions: apparent pKi, converted from pIC50 by Cheng-Prusoff
T1 construct: purchased Life Technologies PR9075A
T1 sequence (P36897 34-503): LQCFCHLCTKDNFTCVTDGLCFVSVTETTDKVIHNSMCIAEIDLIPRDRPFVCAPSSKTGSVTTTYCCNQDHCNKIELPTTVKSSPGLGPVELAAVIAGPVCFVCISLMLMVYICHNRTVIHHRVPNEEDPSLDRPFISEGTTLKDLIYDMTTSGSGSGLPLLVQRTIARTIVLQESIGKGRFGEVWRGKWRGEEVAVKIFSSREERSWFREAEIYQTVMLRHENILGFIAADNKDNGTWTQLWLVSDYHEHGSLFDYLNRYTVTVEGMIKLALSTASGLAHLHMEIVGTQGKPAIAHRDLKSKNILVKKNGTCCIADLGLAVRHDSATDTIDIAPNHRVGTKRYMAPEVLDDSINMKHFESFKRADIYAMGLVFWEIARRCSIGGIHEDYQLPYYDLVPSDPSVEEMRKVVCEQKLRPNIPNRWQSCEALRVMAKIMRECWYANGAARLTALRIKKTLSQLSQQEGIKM
Summary of the method: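 Enzyme preincubated with compound for 60 min at room temperature, then reacted with ATP (125 μM as 5× stock) for 60 min at 37 °C. Stopped with EDTA plus Eu-anti-phospho-Topoisomerase 2-alpha (Thr1342) antibody and read by TR-FRET at 665 nm. pIC50 from a 4-parameter fit, converted to pKi by Cheng-Prusoff.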

SMILES | IC50 [1] [nM] | Ki [2] [nM]
Fc1ccc(-c2nccc(Nc3ccnc(Nc4ccc(N5CCOCC5)cc4)n3)n2)nc1C(F)F [Compound 426, N4-(2-(6-(difluoromethyl)-5-fluoropyridin-2-yl)pyrimidin-4-yl)-N2-(4-morpholinophenyl)pyrimidine-2,4-diamine] | 25.1 to 158 | 3.98 to 31.6
CNCCNS(=O)(=O)c1ccc(Nc2nccc(Nc3ccnc(-c4cccc(C)n4)n3)n2)cc1 [Compound 427, N-[2-(methylamino)ethyl]-4-[[4-[[2-(6-methyl-2-pyridyl)pyrimidin-4-yl]amino]pyrimidin-2-yl]amino]benzenesulfonamide] | 25.1 to 158 | 0.0398 to 0.316
Cc1cccc(-c2nccc(Nc3ccnc(Nc4ccc(CN5CCC[C@@H](C(=O)O)C5)cc4)n3)n2)n1 [Compound 428, (3R)-1-[[4-[[4-[[2-(6-methyl-2-pyridyl)pyrimidin-4-yl]amino]pyrimidin-2-yl]amino]phenyl]methyl] piperidine-3-carboxylic acid] | 200 to 1260 | 0.0398 to 0.316
Cc1cccc(-c2nccc(Nc3ccnc(Nc4ccc(N5CCN(C6CCNC6)CC5)cc4)n3)n2)n1 (stereo not shown) [Compound 429, N4-[2-(6-methyl-2-pyridyl)pyrimidin-4-yl]-N2-[4-(4-pyrrolidin-3-ylpiperazin-1-yl)phenyl]pyrimidine-2,4-diamine] | 200 to 1260 | 0.0398 to 0.316
Cc1cccc(-c2nccc(Nc3ccnc(Nc4cccc(S(=O)(=O)NCCN)c4)n3)n2)n1 [Compound 430, N-(2-aminoethyl)-3-[[4-[[2-(6-methyl-2-pyridyl)pyrimidin-4-yl]amino]pyrimidin-2-yl]amino]benzenesulfonamide] | 25.1 to 158 | 0.0398 to 0.316
COc1ccc(Nc2nccc(Nc3ccnc(-c4cccc(C)n4)n3)n2)cc1CN1C[C@@H](C)N[C@@H](C)C1 [Compound 431, N2-[4-methoxy-3-[[rac-(3R,5S)-3,5-dimethylpiperazin-1-yl]methyl]phenyl]-N4-[2-(6-methyl-2-pyridyl)pyrimidin-4-yl]pyrimidine-2,4-diamine] | 25.1 to 158 | 0.0398 to 0.316
Cc1cccc(-c2nccc(Nc3ccnc(Nc4ccc(N5CCC(N(C)Cc6ccccc6)CC5)cc4)n3)n2)n1 [Compound 432, N2-[4-[4-[benzyl(methyl)amino]-1-piperidyl]phenyl]-N4-[2-(6-methyl-2-pyridyl)pyrimidin-4-yl]pyrimidine-2,4-diamine] | 25.1 to 158 | 0.0398 to 0.316
Cc1cccc(-c2nccc(Nc3ccnc(Nc4ccc(N5CCCC(C(=O)OCC6CNC6)C5)cc4)n3)n2)n1 (stereo not shown) [Compound 433, azetidin-3-ylmethyl 1-[4-[[4-[[2-(6-methyl-2-pyridyl)pyrimidin-4-yl]amino]pyrimidin-2-yl]amino]phenyl]piperidine-3-carboxylate] | 25.1 to 158 | 0.0398 to 0.316
Cc1cccc(-c2nccc(Nc3ccnc(Nc4ccc(C(=O)N5CCN(C)CC5)cc4)n3)n2)n1 [Compound 434, (4-methylpiperazin-1-yl)-[4-[[4-[[2-(6-methyl-2-pyridyl)pyrimidin-4-yl]amino]pyrimidin-2-yl]amino]phenyl]methanone] | 25.1 to 158 | 0.0398 to 0.316
Cc1cccc(-c2nccc(Nc3ccnc(Nc4ccc(NC(=O)N5C[C@@H](C)N[C@@H](C)C5)cc4)n3)n2)n1 [Compound 435, rac-(3S,5R)-3,5-dimethyl-N-[4-[[4-[[2-(6-methyl-2-pyridyl)pyrimidin-4-yl]amino]pyrimidin-2-yl]amino]phenyl]piperazine-1-carboxamide] | 25.1 to 158 | 0.0398 to 0.316
CN1CCN(C2CCN(c3ccc(Nc4nccc(Nc5ccnc(-c6cc(Cl)ccc6F)n5)n4)cc3)CC2)CC1 [Compound 436, N4-[2-(5-chloro-2-fluoro-phenyl)pyrimidin-4-yl]-N2-[4-[4-(4-methylpiperazin-1-yl)-1-piperidyl]phenyl]pyrimidine-2,4-diamine] | 25.1 to 158 | 0.0398 to 0.316
COC(=O)c1cnc(-c2cccc(C)n2)nc1Nc1ccnc(Nc2ccc(N)cc2)n1 [Compound 437, methyl 4-[[2-(4-aminoanilino)pyrimidin-4-yl]amino]-2-(6-methyl-2-pyridyl)pyrimidine-5-carboxylate] | 25.1 to 158 | 0.398 to 3.16
Cc1cccc(-c2nccc(Nc3ccnc(Nc4ccc(CN5CC(C)(N)C5)cc4)n3)n2)n1 [Compound 438, N2-[4-[(3-amino-3-methyl-azetidin-1-yl)methyl]phenyl]-N4-[2-(6-methyl-2-pyridyl)pyrimidin-4-yl]pyrimidine-2,4-diamine] | 25.1 to 158 | 0.0398 to 0.316
Cc1cccc(-c2nccc(Nc3ccnc(Nc4ccc(C(=O)O)s4)n3)n2)n1 [Compound 439, 5-[[4-[[2-(6-methyl-2-pyridyl)pyrimidin-4-yl]amino]pyrimidin-2-yl]amino]thiophene-2-carboxylic acid] | 200 to 1260 | 0.398 to 3.16
Cc1cccc(-c2nccc(Nc3ccnc(Nc4ccc(-c5cnn(CCN)c5)cc4)n3)n2)n1 [Compound 440, N2-[4-[1-(2-aminoethyl)pyrazol-4-yl]phenyl]-N4-[2-(6-methyl-2-pyridyl)pyrimidin-4-yl]pyrimidine-2,4-diamine] | 25.1 to 158 | 0.0398 to 0.316
Cc1cccc(-c2nccc(Nc3ccnc(Nc4ccc(NS(=O)(=O)N(C)C5CCNCC5)cc4)n3)n2)n1 [Compound 441, 4-[[2-[4-[[methyl(4-piperidyl)sulfamoyl]amino]anilino]pyrimidin-4-yl]amino]-2-(6-methyl-2-pyridyl)pyrimidine] | 25.1 to 158 | 0.0398 to 0.316
COC(=O)Cc1ccc(Nc2nccc(Nc3ccnc(-c4cccc(C)n4)n3)n2)cc1 [Compound 442, methyl 2-[4-[[4-[[2-(6-methyl-2-pyridyl)pyrimidin-4-yl]amino]pyrimidin-2-yl]amino]phenyl]acetate] | 25.1 to 158 | 0.398 to 3.16
Cc1cccc(-c2nccc(Nc3ccnc(Nc4cccc(NC(=O)C5CCCNC5)c4)n3)n2)n1 (stereo not shown) [Compound 443, N-(3-((4-((2-(6-methylpyridin-2-yl)pyrimidin-4-yl)amino)pyrimidin-2-yl)amino)phenyl)piperidine-3-carboxamide] | ≤ 20 | 0.0398 to 0.316
Cc1cccc(-c2nccc(Nc3ccnc(Nc4ccc(CN5CCCC(C(=O)O)C5)cc4)n3)n2)n1 (stereo not shown) [Compound 444, 1-[[4-[[4-[[2-(6-methyl-2-pyridyl)pyrimidin-4-yl]amino]pyrimidin-2-yl]amino]phenyl]methyl] piperidine-3-carboxylic acid] | 25.1 to 158 | 0.0398 to 0.316
Cc1cccc(-c2nccc(Nc3ccnc(Nc4ccc(N5CCNCC5)c(Cl)c4)n3)n2)n1 [Compound 445, N2-(3-chloro-4-piperazin-1-yl-phenyl)-N4-[2-(6-methyl-2-pyridyl)pyrimidin-4-yl]pyrimidine-2,4-diamine] | 25.1 to 158 | 0.0398 to 0.316
CN1CCN(C2CCN(c3ccc(Nc4nccc(Nc5ccnc(-c6ccccc6F)n5)n4)cc3)CC2)CC1 [Compound 446, N4-[2-(2-fluorophenyl)pyrimidin-4-yl]-N2-[4-[4-(4-methylpiperazin-1-yl)-1-piperidyl]phenyl]pyrimidine-2,4-diamine] | 25.1 to 158 | 0.398 to 3.16
Cc1cccc(-c2nccc(Nc3ccnc(Nc4ccc(N5CCNCC5)c(C#N)c4)n3)n2)n1 [Compound 447, 5-[[4-[[2-(6-methyl-2-pyridyl)pyrimidin-4-yl]amino]pyrimidin-2-yl]amino]-2-piperazin-1-yl-benzonitrile] | 25.1 to 158 | 0.0398 to 0.316
Cc1cccc(-c2nccc(Nc3ccnc(Nc4ccc(N5CCN(C(CCO)C(=O)O)CC5)cc4)n3)n2)n1 (stereo not shown) [Compound 448, 4-hydroxy-2-[4-[4-[[4-[[2-(6-methyl-2-pyridyl)pyrimidin-4-yl]amino]pyrimidin-2-yl]amino]phenyl]piperazin-1-yl]butanoic acid] | 25.1 to 158 | 0.0398 to 0.316
CC[C@H](C)OC(=O)CC1CNCCN1c1ccc(Nc2nccc(Nc3ccnc(-c4cccc(C)n4)n3)n2)cc1 (stereo partly drawn) [Compound 449, [(1S)-1-methylpropyl] 2-[1-[4-[[4-[[2-(6-methyl-2-pyridyl)pyrimidin-4-yl]amino]pyrimidin-2-yl]amino]phenyl]piperazin-2-yl]acetate] | 25.1 to 158 | 0.0398 to 0.316
Cc1cccc(-c2nccc(Nc3ccnc(Nc4ccc(N5CCC(NCc6ccccc6)CC5)cc4)n3)n2)n1 [Compound 450, N2-[4-[4-(benzylamino)-1-piperidyl]phenyl]-N4-[2-(6-methyl-2-pyridyl)pyrimidin-4-yl]pyrimidine-2,4-diamine] | 200 to 1260 | 0.0398 to 0.316
COC(=O)CC1CN(Cc2ccc(Nc3nccc(Nc4ccnc(-c5cccc(C)n5)n4)n3)cc2)CCN1 (stereo not shown) [Compound 451, methyl 2-[4-[[4-[[4-[[2-(6-methyl-2-pyridyl)pyrimidin-4-yl]amino]pyrimidin-2-yl]amino]phenyl]methyl]piperazin-2-yl]acetate] | 25.1 to 158 | 0.0398 to 0.316

From patent US20230399312A1, “SUBSTITUTED PYRIMIDINES AND METHODS OF USE” (THERAVANCE BIOPHARMA R&D IP, LLC, priority 2020, published 2023)
